From patent US20230000842A1, “METHODS OF TREATING CARTILAGE DISORDERS THROUGH INHIBITION OF CLK AND DYRK” (SAMUMED, LLC, priority 2019, published 2023)
pEC50: −log10 of the molar value.

Key:
CLK2 kinase = CLK2 kinase (Homo sapiens, UniProt P49760); experiment: CLK2 kinase activity assay (Z-lyte FRET); type: biochemical; settings: Z-lyte Ser/Thr 6 peptide, 60 μM ATP, 1 h at room temperature;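 also: FRET read-out as coumarin to fluorescein emission ratio, unphosphorylated peptide as 0% and phosphorylated peptide as 100% controls, duplicate reactions, non-linear regression fit of dose-response curves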
Sequence of CLK2 kinase (P49760 whole entry): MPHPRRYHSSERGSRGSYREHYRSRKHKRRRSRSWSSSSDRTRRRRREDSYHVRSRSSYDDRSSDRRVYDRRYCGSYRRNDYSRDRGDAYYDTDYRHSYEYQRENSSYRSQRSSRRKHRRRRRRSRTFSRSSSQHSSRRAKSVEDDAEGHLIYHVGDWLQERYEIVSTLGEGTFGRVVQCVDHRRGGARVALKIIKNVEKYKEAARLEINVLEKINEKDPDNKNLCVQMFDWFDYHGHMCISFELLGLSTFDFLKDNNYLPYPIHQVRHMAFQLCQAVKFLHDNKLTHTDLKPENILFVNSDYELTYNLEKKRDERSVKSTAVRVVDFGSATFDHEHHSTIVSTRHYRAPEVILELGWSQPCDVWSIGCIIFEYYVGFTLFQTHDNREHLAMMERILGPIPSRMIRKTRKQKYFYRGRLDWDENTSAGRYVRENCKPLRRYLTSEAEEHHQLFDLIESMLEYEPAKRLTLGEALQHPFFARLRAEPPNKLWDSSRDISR

[1] = test system: Wnt pathway activity (SW480 colon carcinoma cells stably expressing the Sp5-Luc reporter); experiment: Wnt pathway activity screening assay (Sp5-Luc reporter gene assay); settings: Homo sapiens, SW480, Table 4; SW480 cells stably expressing Sp5-Luc reporter, 10-point dose-response from 10 μM, 36 to 48 hours
CLK3 kinase = CLK3 kinase (Homo sapiens, UniProt P49761); experiment: CLK3 kinase activity assay (Z-lyte FRET); type: biochemical; settings: Z-lyte Ser/Thr 18 peptide, 156 μM ATP, 1 h at room temperature;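 also: kinase activity read as coumarin/fluorescein emission ratio by FRET, unphosphorylated peptide as 0% and phosphorylated peptide as 100% control, values from non-linear regression of dose-response curves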
Sequence of CLK3 kinase (P49761 whole entry): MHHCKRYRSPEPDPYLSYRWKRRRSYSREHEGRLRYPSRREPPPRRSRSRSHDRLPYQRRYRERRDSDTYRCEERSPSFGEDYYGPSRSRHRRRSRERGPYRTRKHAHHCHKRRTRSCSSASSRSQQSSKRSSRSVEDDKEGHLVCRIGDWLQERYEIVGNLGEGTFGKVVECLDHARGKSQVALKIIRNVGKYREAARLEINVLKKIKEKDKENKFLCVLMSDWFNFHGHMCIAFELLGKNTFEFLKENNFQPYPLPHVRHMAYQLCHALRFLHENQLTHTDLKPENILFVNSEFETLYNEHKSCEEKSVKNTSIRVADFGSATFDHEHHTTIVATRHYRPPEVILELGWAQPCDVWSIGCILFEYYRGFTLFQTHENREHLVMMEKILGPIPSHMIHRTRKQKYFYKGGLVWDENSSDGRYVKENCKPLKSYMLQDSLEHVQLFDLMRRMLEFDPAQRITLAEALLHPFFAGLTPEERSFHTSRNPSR

[2] = test system: primary human mesenchymal stem cells (hMSCs); experiment: Chondrogenesis screening using primary human mesenchymal stem cells; type: cell-based; settings: Homo sapiens, Mesenchymal stem cells, hMSC chondrogenesis; for EC50: concentration required to induce 50% levels of chondrogenesis with TGF-β3 as positive control, read-out: Conc (nM) of 50% TGF-β3 activity; for Emax: maximum activity relative to TGF-β3 (10 ng/mL) positive control, read-out: Max. Activity as % TGF-β3 activity
How it was run: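 Primary hMSCs at passage 3–6 were treated across compound concentrations, with TGF-β3 as positive control. Chondrogenic nodule area per well was normalized to 3 DMSO wells on the same plate (fold over DMSO, 2–3 replicates). EC50, maximum activity and the dose reaching it were derived.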

Structure (SMILES)	pEC50 (CLK2 kinase)	pEC50 [1]	pEC50 (CLK3 kinase)	EC50 [2]	Emax [2]
O=C(Cc1ccccc1)Nc1cncc(-c2ccc3[nH]nc(-c4nc5c(-c6ccoc6)cncc5[nH]4)c3c2)c1 [compound 234]	8.22	7.48	6.92	30 nM	102%
CC(C)Nc1cncc(-c2ccc3[nH]nc(-c4nc5c(-c6ccoc6)nccc5[nH]4)c3n2)c1 [compound 238]	8.70	6.53	6.64	30 nM	76.2%
CC(C)Nc1cncc(-c2ccc3[nH]nc(-c4nc5c(-c6ccoc6)cncc5[nH]4)c3n2)c1 [compound 239]	8.70	6.22	7.06	30 nM	75.3%
Cc1ccncc1-c1ccc2[nH]nc(-c3nc4c(-c5ccsc5)nccc4[nH]3)c2c1 [compound 242]	7.82	7.72	7.12	10 nM	156%
CCC(=O)Nc1cncc(-c2ccc3[nH]nc(-c4nc5c(-c6ccsc6)cncc5[nH]4)c3c2)c1 [compound 244]	7.80	8.70	7.19	30 nM	203%
CCCC(=O)Nc1cncc(-c2ccc3[nH]nc(-c4nc5c(-c6ccsc6)ccnc5[nH]4)c3c2)c1 [compound 245]	7.47	8.11	5.01	30 nM	72.6%
CCCC(=O)Nc1cncc(-c2ccc3[nH]nc(-c4nc5c(-c6ccsc6)cncc5[nH]4)c3c2)c1 [compound 246]	8.52	7.21	7.68		42%
CCCC(=O)Nc1cncc(-c2ccc3[nH]nc(-c4nc5c(-c6ccsc6)cncc5[nH]4)c3n2)c1 [compound 247]	8.70	5.44	7.32	20.6 nM	58.4%
CCNCc1cncc(-c2cc3c(-c4nc5c(-c6ccsc6)nccc5[nH]4)n[nH]c3cn2)c1 [compound 249]	9.00	7.23	7.52	30 nM	67.7%
CN(C)Cc1cncc(-c2cnc3[nH]nc(-c4nc5c(-c6ccsc6)cncc5[nH]4)c3c2)c1 [compound 252]	8.70	7.24	6.93		91.3%
c1cncc(-c2cnc3[nH]nc(-c4nc5c(-c6cccs6)cccc5[nH]4)c3c2)c1 [compound 254]	8.52	7.92	7.37		41.6%

Further compounds by rising pEC50 (CLK2 kinase), results first:

pEC50 (CLK2 kinase)	pEC50 [1]	pEC50 (CLK3 kinase)	EC50 [2]	Structure (SMILES)	Emax [2]
7.72	7.36	6.69	30 nM	CC(C)Nc1cncc(-c2ccc3[nH]nc(-c4nc5c(-c6ccoc6)nccc5[nH]4)c3c2)c1 [compound 236]	90.2%
8.10	7.29	5.58	100 nM	O=C(Nc1cncc(-c2cnc3[nH]nc(-c4nc5c(-c6ccoc6)cncc5[nH]4)c3c2)c1)c1ccccc1 [compound 235]	110%
8.15	7.28	6.87	30 nM	CC(C)Nc1cncc(-c2cnc3[nH]nc(-c4nc5c(-c6ccoc6)nccc5[nH]4)c3c2)c1 [compound 237]	72%
8.15	8.74	7.59		FC1(F)CCN(Cc2cncc(-c3ccc4[nH]nc(-c5nc6c(-c7ccsc7)cncc6[nH]5)c4c3)c2)C1 [compound 253]	81.3%
8.30	8.00	7.21	100 nM	CCC(=O)Nc1cncc(-c2cnc3[nH]nc(-c4nc5c(-c6ccsc6)cccc5[nH]4)c3c2)c1 [compound 243]	167%
8.70	6.53	6.95	100 nM	CC(C)Nc1cncc(-c2ccc3[nH]nc(-c4nc5c(-c6ccoc6)ccnc5[nH]4)c3n2)c1 [compound 240]	64.2%
